The source of these data is article PMC7230820, “Anti-Inflammatory Effects of Fucoxanthinol in LPS-Induced RAW264.7 Cells through the NAAA-PEA Pathway” (Marine Drugs, 2020).

Experiment [1] deals with T1, fatty acid amide hydrolase (FAAH) (Homo sapiens, UniProt O00519).
T1 sequence (O00519 1-579): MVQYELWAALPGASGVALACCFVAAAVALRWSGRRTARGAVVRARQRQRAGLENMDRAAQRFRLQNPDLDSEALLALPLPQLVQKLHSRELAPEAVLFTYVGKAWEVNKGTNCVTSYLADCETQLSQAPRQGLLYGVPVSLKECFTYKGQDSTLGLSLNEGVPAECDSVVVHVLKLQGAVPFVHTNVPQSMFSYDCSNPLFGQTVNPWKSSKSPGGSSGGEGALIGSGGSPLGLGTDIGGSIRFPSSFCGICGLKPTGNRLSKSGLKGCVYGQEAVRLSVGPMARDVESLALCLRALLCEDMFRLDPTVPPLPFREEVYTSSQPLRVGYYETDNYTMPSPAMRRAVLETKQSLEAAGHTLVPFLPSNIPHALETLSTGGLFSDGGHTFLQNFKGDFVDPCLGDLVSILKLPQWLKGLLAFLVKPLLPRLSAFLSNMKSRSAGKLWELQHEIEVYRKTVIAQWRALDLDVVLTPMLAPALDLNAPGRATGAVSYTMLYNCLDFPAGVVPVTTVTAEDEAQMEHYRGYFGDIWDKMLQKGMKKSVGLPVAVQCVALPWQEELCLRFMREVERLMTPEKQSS
Nature of the experiment: recombinant enzyme activity assay, anandamide substrate, pH […]. It counts as biochemical.

Experiment [2] has as its target T2, N-acylethanolamine acid amidase (NAAA) (Homo sapiens, UniProt Q02083).
T2 sequence (Q02083 29-125): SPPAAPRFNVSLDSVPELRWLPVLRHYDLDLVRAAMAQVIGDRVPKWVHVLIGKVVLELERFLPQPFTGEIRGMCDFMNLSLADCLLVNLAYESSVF
T2 sequence (Q02083 126-359): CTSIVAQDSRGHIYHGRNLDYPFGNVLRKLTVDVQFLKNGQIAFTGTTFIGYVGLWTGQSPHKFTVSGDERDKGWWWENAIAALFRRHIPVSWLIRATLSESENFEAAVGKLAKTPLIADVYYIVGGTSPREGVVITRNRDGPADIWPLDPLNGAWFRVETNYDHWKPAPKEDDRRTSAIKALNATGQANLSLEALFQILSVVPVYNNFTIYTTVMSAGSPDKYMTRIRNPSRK
The experiment is described as follows: recombinant enzyme activity assay, heptaenyl ethanolamide substrate, pH […]. It counts as biochemical.

`C\C(C=C=C1C(C)(C)C[C@H](O)C[C@@]1(C)O)=C/C=C/C(C)=C/C=C/C=C(C)/C=C/C=C(\C)C(=O)C[C@@]12O[C@]1(C)C[C@@H](O)CC2(C)C` [FXOH, Fucoxanthinol]: the IC50 was 42.4 ± 1.11 µM in experiment [1] and 12.8 ± 1.12 µM in experiment [2]. Take `CC(=O)O[C@H]1CC(C)(C)C(=C=C/C(C)=C/C=C/C(C)=C/C=C/C=C(C)/C=C/C=C(\C)C(=O)C[C@@]23O[C@]2(C)C[C@@H](O)CC3(C)C)[C@](C)(O)C1` [FX, Fucoxanthin]: in experiment [2], the IC50 came out at 31.4 ± 1.06 µM.
